Source: patent publication US12049450B2, “Pyridyloxy-carboxylate derivative and preparation method therefor, herbicidal composition, and use” (Qingdao Kingagroot Chemical Compound Co., Ltd., priority 2018, dated 2024)

Tests used:
Experiment in all cases: Post-emergence test experiment (greenhouse pot, spray at 2-3 leaf stage)
Assay type in all cases: in vivo
Details in all cases: 1000 g/ha; post-emergence spray at 2-3 leaf stage; assessed after 3 weeks; fresh weight inhibition rate
Digitaria sanguinalis = tested on: Digitaria sanguinalis
Summary of the method: (§1)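 Activity graded levels 0-5 by fresh-weight inhibition (level 5 above 85%, level 0 below 5%), assessed 3 weeks after treatment. Plants grown in greenhouse pots were sprayed post-emergence at 2-3 leaves using acetone/tween-80 solutions with methyl oleate synergist (1.5 L/ha).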

Galium spurium = tested on: Galium spurium
Summary of the method: as §1

Abutilon theophrasti = tested on: Abutilon theophrasti
Summary of the method: as §1

Monochoria vaginalis = tested on: Monochoria vaginalis
Summary of the method: as §1

Echinochloa crusgalli = tested on: Echinochloa crusgalli
Summary of the method: as §1

Row | Structure (SMILES) | Activity level (growth inhibition rate) Digitaria sanguinalis (Digitaria sanguinalis) | Activity level (growth inhibition rate) Galium spurium (Galium spurium) | Activity level (growth inhibition rate) Abutilon theophrasti (Abutilon theophrasti) | Activity level (growth inhibition rate) Monochoria Vaginalis (Monochoria vaginalis) | Activity level (growth inhibition rate) Echinochloa crusgalli (Echinochloa crusgalli)
1 | CC(Oc1nc(F)c(Cl)c(N)c1Cl)C(=O)SCn1ccnn1 (stereo not shown) [Compound 137] | 5 (Level 5: the growth inhibition rate is greater than 85%) | 5 (Level 5: the growth inhibition rate is greater than 85%) | 5 (Level 5: the growth inhibition rate is greater than 85%) | 5 (Level 5: the growth inhibition rate is greater than 85%) | 5 (Level 5: the growth inhibition rate is greater than 85%)
2 | CC(Oc1nc(F)c(Cl)c(N)c1Cl)C(=O)OCc1nnnn1C (stereo not shown) [Compound 138] | 5 (Level 5: the growth inhibition rate is greater than 85%) | 5 (Level 5: the growth inhibition rate is greater than 85%) | 5 (Level 5: the growth inhibition rate is greater than 85%) | 5 (Level 5: the growth inhibition rate is greater than 85%) | 5 (Level 5: the growth inhibition rate is greater than 85%)
3 | CC(Oc1nc(F)c(Cl)c(N)c1Cl)C(=O)SCc1ccco1 (stereo not shown) [Compound 139] | 5 (Level 5: the growth inhibition rate is greater than 85%) | 5 (Level 5: the growth inhibition rate is greater than 85%) | 5 (Level 5: the growth inhibition rate is greater than 85%) | 5 (Level 5: the growth inhibition rate is greater than 85%) | 5 (Level 5: the growth inhibition rate is greater than 85%)
4 | CC(Oc1nc(F)c(Cl)c(N)c1Cl)C(=O)OCc1cnco1 (stereo not shown) [Compound 141] | 5 (Level 5: the growth inhibition rate is greater than 85%) | 5 (Level 5: the growth inhibition rate is greater than 85%) | 5 (Level 5: the growth inhibition rate is greater than 85%) | 5 (Level 5: the growth inhibition rate is greater than 85%) | 5 (Level 5: the growth inhibition rate is greater than 85%)
5 | CC(Oc1nc(F)c(Cl)c(N)c1Cl)C(=O)SCCc1cocn1 (stereo not shown) [Compound 142] | 5 (Level 5: the growth inhibition rate is greater than 85%) | 5 (Level 5: the growth inhibition rate is greater than 85%) | 5 (Level 5: the growth inhibition rate is greater than 85%) | 5 (Level 5: the growth inhibition rate is greater than 85%) | 5 (Level 5: the growth inhibition rate is greater than 85%)
6 | CC(Oc1nc(F)c(Cl)c(N)c1Cl)C(=O)OCc1ncco1 (stereo not shown) [Compound 143] | 5 (Level 5: the growth inhibition rate is greater than 85%) | 5 (Level 5: the growth inhibition rate is greater than 85%) | 5 (Level 5: the growth inhibition rate is greater than 85%) | 5 (Level 5: the growth inhibition rate is greater than 85%) | 5 (Level 5: the growth inhibition rate is greater than 85%)
7 | CC(Oc1nc(F)c(Cl)c(N)c1Cl)C(=O)OCc1ccno1 (stereo not shown) [Compound 144] | 5 (Level 5: the growth inhibition rate is greater than 85%) | 5 (Level 5: the growth inhibition rate is greater than 85%) | 5 (Level 5: the growth inhibition rate is greater than 85%) | 5 (Level 5: the growth inhibition rate is greater than 85%) | 5 (Level 5: the growth inhibition rate is greater than 85%)
8 | CC(Oc1nc(F)c(Cl)c(N)c1Cl)C(=O)SCc1ccon1 (stereo not shown) [Compound 145] | 5 (Level 5: the growth inhibition rate is greater than 85%) | 5 (Level 5: the growth inhibition rate is greater than 85%) | 5 (Level 5: the growth inhibition rate is greater than 85%) | 5 (Level 5: the growth inhibition rate is greater than 85%) | 5 (Level 5: the growth inhibition rate is greater than 85%)
9 | CC(Oc1nc(F)c(Cl)c(N)c1Cl)C(=O)OCc1cnoc1 (stereo not shown) [Compound 146] | 5 (Level 5: the growth inhibition rate is greater than 85%) | 5 (Level 5: the growth inhibition rate is greater than 85%) | 5 (Level 5: the growth inhibition rate is greater than 85%) | 5 (Level 5: the growth inhibition rate is greater than 85%) | 5 (Level 5: the growth inhibition rate is greater than 85%)
10 | Cc1noc(C)c1COC(=O)C(C)Oc1nc(F)c(Cl)c(N)c1Cl (stereo not shown) [Compound 147] | 5 (Level 5: the growth inhibition rate is greater than 85%) | 5 (Level 5: the growth inhibition rate is greater than 85%) | 5 (Level 5: the growth inhibition rate is greater than 85%) | 5 (Level 5: the growth inhibition rate is greater than 85%) | 5 (Level 5: the growth inhibition rate is greater than 85%)
11 | CC(Oc1nc(F)c(Cl)c(N)c1Cl)C(=O)OCCc1nnco1 (stereo not shown) [Compound 148] | 5 (Level 5: the growth inhibition rate is greater than 85%) | 5 (Level 5: the growth inhibition rate is greater than 85%) | 5 (Level 5: the growth inhibition rate is greater than 85%) | 5 (Level 5: the growth inhibition rate is greater than 85%) | 5 (Level 5: the growth inhibition rate is greater than 85%)
12 | CC(Oc1nc(F)c(Cl)c(N)c1Cl)C(=O)SCc1nnco1 (stereo not shown) [Compound 149] | 5 (Level 5: the growth inhibition rate is greater than 85%) | 5 (Level 5: the growth inhibition rate is greater than 85%) | 5 (Level 5: the growth inhibition rate is greater than 85%) | 5 (Level 5: the growth inhibition rate is greater than 85%) | 5 (Level 5: the growth inhibition rate is greater than 85%)
13 | CC(Oc1nc(F)c(Cl)c(N)c1Cl)C(=O)SC(C)c1ncon1 (stereo not shown) [Compound 150] | 5 (Level 5: the growth inhibition rate is greater than 85%) | 5 (Level 5: the growth inhibition rate is greater than 85%) | 5 (Level 5: the growth inhibition rate is greater than 85%) | 5 (Level 5: the growth inhibition rate is greater than 85%) | 5 (Level 5: the growth inhibition rate is greater than 85%)
14 | CC(Oc1nc(F)c(Cl)c(N)c1Cl)C(=O)OCc1ncno1 (stereo not shown) [Compound 151] | 5 (Level 5: the growth inhibition rate is greater than 85%) | 5 (Level 5: the growth inhibition rate is greater than 85%) | 5 (Level 5: the growth inhibition rate is greater than 85%) | 5 (Level 5: the growth inhibition rate is greater than 85%) | 5 (Level 5: the growth inhibition rate is greater than 85%)
15 | CC(Oc1nc(F)c(Cl)c(N)c1Cl)C(=O)SCCc1cnno1 (stereo not shown) [Compound 152] | 5 (Level 5: the growth inhibition rate is greater than 85%) | 5 (Level 5: the growth inhibition rate is greater than 85%) | 5 (Level 5: the growth inhibition rate is greater than 85%) | 5 (Level 5: the growth inhibition rate is greater than 85%) | 5 (Level 5: the growth inhibition rate is greater than 85%)
16 | CC(Oc1nc(F)c(Cl)c(N)c1Cl)C(=O)OCc1conn1 (stereo not shown) [Compound 153] | 5 (Level 5: the growth inhibition rate is greater than 85%) | 5 (Level 5: the growth inhibition rate is greater than 85%) | 5 (Level 5: the growth inhibition rate is greater than 85%) | 5 (Level 5: the growth inhibition rate is greater than 85%) | 5 (Level 5: the growth inhibition rate is greater than 85%)
17 | CC(Oc1nc(F)c(Cl)c(N)c1Cl)C(=O)SCc1cccs1 (stereo not shown) [Compound 154] | 5 (Level 5: the growth inhibition rate is greater than 85%) | 5 (Level 5: the growth inhibition rate is greater than 85%) | 5 (Level 5: the growth inhibition rate is greater than 85%) | 5 (Level 5: the growth inhibition rate is greater than 85%) | 5 (Level 5: the growth inhibition rate is greater than 85%)
